Consider two compounds from patent US8603493B2, “Carbosilane dendrimers, preparation method thereof and use of same” (Dendrico, S.L., priority 2005, dated 2013).

Data set [1] in a line: Dendrimer-drug binding test (polyacrylamide gel delay), methotrexate. The following applies: dendrimer 100 μM, charge ratios 1+/1− to 8+/1−, 37° C., 1 hour. As to the method:
(§1) The drugs chosen to perform the tests, all with at least one negative charge at physiological pH, were: • Methotrexate (sodium salt): • 1 charge (−) • Supplying laboratory: Almirall • Presentation: 25 mg/ml solution • Excipients: NaCl, NaOH, HCl, double-distilled H2O • Heparin (sodium salt) • Several charges (−) • Supplying laboratory: Rovi • Presentation: 10 mg/ml solution (1000 U) • Excipients: methyl p-oxybenzoate, propyl p-oxybenzoate, NaCl, double-distilled H2O • Insulin (recombinant human insulin) • 4 charges (−) • Supplying laboratory: Novo Nordisk • Product trade name: Actrapid • Presentation: 3.5 mg/ml solution (100 U) • Excipients: ZnCl2, HCl, NaOH, double-distilled H2O
(§2) The determination of the bond and complex formation between the dendrimer and the drug was performed by evaluating the delay in the polyacrylamide gel of the dendrimer bound to drug with respect to the free dendrimer: • Complex formation: It is performed in a final volume of the mixture of 30 μl, which is the maximum volume to load in the gel. To do this, one starts from the necessary quantity of dendrimer that provides a perfectly identifiable band by staining with silver nitrate in the gel once the electrophoresis has been carried out: 20 μl of a 100 μM solution, which corresponds to […] molecules. The drug is added in the 10 μl at different concentrations to produce the chosen (+) and (−) charge ratios, also determining the quantity of drug molecules present in the mixture. An incubation of said mixture was performed at 37° C. during 1 hour to give time for a more thermodynamically stable complex to form, although more time may be needed for its formation. Each complex is performed in duplicate. • Electrophoresis and gel staining: The gels used were 7.5% polyacrylamide/bisacrylamide, prepared with 1.5M Tris pH 8.8. Each electrophoresis was carried out at 90 volts during 4 hours, after which the gel was stained with silver nitrate and photographed. […]

Data set [2] can be described thus: Dendrimer-drug binding test (polyacrylamide gel delay), heparin. The following applies: dendrimer 100 μM, heparin 10, 1, 0.5, 0.1 U, 37° C., 1 hour. As to the method:
as §1, §2

Data set [3] addresses T1, Insulin (recombinant human insulin) (Homo sapiens, UniProt P01308).
T1 construct: Despite having its molecular weight (5825 g/mol) and establishing an average of 4 (−) charges; purchased Novo Nordisk Actrapid (trade name; no catalogue number given)
The data set can be described thus: Dendrimer-drug binding test (polyacrylamide gel delay), insulin. Conditions: dendrimer 100 μM, insulin 1, 0.5, 0.1, 0.05 U, 37° C., 1 hour. How it is done:
as §1, §2

Data set [4] addresses T1, Insulin (recombinant human insulin). Nature of the data set: pH stability test of IM16 dendrimer-insulin complexes. Conditions: 0.5 U insulin; pH 5, 6, 7.4, 9, 10; 15 minutes. Format: physicochemical. As to the method: The test on the behaviour of the dendrimer-drug complexes previously formed on varying the medium's pH was again performed by evaluating the delay in polyacrylamide gel of the dendrimer bound to the drug with respect to free dendrimer, following a process similar to that used in the tests to determine the dendrimer-drug bond, although introducing a stage of variation of pH in the complex formation process of prior to electrophoresis, process that was performed in the following way: • Complex formation: It was performed in a final mixture volume of 30 μl, which is the maximum volume for loading in the gel. To do this, we started from the necessary quantity of dendrimer which provides a band perfectly identifiable by staining with silver nitrate in the gel once the electrophoresis has been performed: 20 μl of a 100 μM solution, which correspond to 1.2×10^15 molecules. […] An incubation was performed of the dendrimer and drug mixtures at 37° C. during 1 hour to give time for a more thermodynamically stable complex to form, although more time may be needed for its formation. For each pH to test, 2 mixtures were incubated. […]

Data set [5] concerns ODN TAR. Nature of the data set: Stability of the NN-ODN dendriplex in complete medium with 10% foetal calf serum. Conditions: TAR+NN 2/1, complete medium with 10% FCS. As to the method: With the intention of seeing the stability of the dendriplexes in the presence of serum over time, a test was performed wherein to the samples was added complete medium which contained 10% foetal calf serum (FCS). The following samples were prepared with TAR as ODN:
As indicated, 20′ after its preparation 100 μl of complete medium were added to samples 1, 2 and 3. From each one of the samples 45 μl aliquots were taken after 40 minutes, 4 hours and 17 hours and they were subjected to electrophoresis in agarose gel. The samples were loaded in the gel following the ordering of its numbering from left to right, having previously situated a 100 bp ladder marker. In the last point (17 hours), only the 2/1 ratio complex was tested against ODN without NN. The results are shown in FIG. 7, wherein there appears a date on each one of the wells corresponding to samples with TAR+NN in 2/1 ratio.

Each structure is given as a SMILES string.

T1 sequence (P01308 25-54 limits assumed): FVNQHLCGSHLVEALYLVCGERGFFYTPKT
T1 sequence (P01308 90-110 limits assumed): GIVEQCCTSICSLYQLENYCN

As to `C[N+](C)(C)CCO[Si](C)(CCC[Si](C)(CCC[Si](CCC[Si](C)(CCC[Si](C)(OCC[N+](C)(C)C)OCC[N+](C)(C)C)CCC[Si](C)(OCC[N+](C)(C)C)OCC[N+](C)(C)C)(CCC[Si](C)(CCC[Si](C)(OCC[N+](C)(C)C)OCC[N+](C)(C)C)CCC[Si](C)(OCC[N+](C)(C)C)OCC[N+](C)(C)C)CCC[Si](C)(CCC[Si](C)(OCC[N+](C)(C)C)OCC[N+](C)(C)C)CCC[Si](C)(OCC[N+](C)(C)C)OCC[N+](C)(C)C)CCC[Si](C)(OCC[N+](C)(C)C)OCC[N+](C)(C)C)OCC[N+](C)(C)C.[I-].[I-].[I-].[I-].[I-].[I-].[I-].[I-].[I-].[I-].[I-].[I-].[I-].[I-].[I-].[I-]` [IM16, 2G-[Si(OCH2CH2NMe3^+I^−)2]8], the “dendrimer-methotrexate complex formation (delay in gel)” value in data set [1] is “complex is not formed”. In data set [2], the “dendrimer-heparin complex formation (delay in gel)” value is listed as “complex is formed”. Besides, in data set [3], the “dendrimer-insulin complex formation (delay in gel)” value is listed as “complex is formed”. Also, in data set [4], the “pH stability of dendrimer-insulin complex” value was “dissociated at acid pH”.
In the case of `CN(CCO[Si](C)(C)CCC[Si](C)(CCC[Si](CCC[Si](C)(CCC[Si](C)(C)OCCN(C)CC[N+](C)(C)C)CCC[Si](C)(C)OCCN(C)CC[N+](C)(C)C)(CCC[Si](C)(CCC[Si](C)(C)OCCN(C)CC[N+](C)(C)C)CCC[Si](C)(C)OCCN(C)CC[N+](C)(C)C)CCC[Si](C)(CCC[Si](C)(C)OCCN(C)CC[N+](C)(C)C)CCC[Si](C)(C)OCCN(C)CC[N+](C)(C)C)CCC[Si](C)(C)OCCN(C)CC[N+](C)(C)C)CC[N+](C)(C)C.[I-].[I-].[I-].[I-].[I-].[I-].[I-].[I-]` [NN, 2G-[Si(O(CH2)2N(Me)(CH2)2NMe3^+I^−)]8], the “time after which the NN dendrimer releases the ODN” value in data set [5] was 17 h. The “dendrimer-methotrexate complex formation (delay in gel)” value in data set [1] was “complex is formed”. Besides, the “dendrimer-heparin complex formation (delay in gel)” value in data set [2] was “complex is formed”. In addition, the “dendrimer-insulin complex formation (delay in gel)” value in data set [3] is “complex is formed”.
